How the values were obtained:
Type in all cases: functional
Spodoptera littoralis [1] = assay: Antifeedant activity against Spodoptera littoralis fifth-instar larvae reared on compound exposed lettuce disks assessed as feeding ratio when 50% of control leaf disk area consumed at 10 ug/cm2 measured for 4 to 5 hr by leaf disk choice method
Spodoptera littoralis [2] = assay: Antifeedant activity against Spodoptera littoralis fifth-instar larvae reared on compound exposed lettuce disks assessed as feeding ratio when 50% of control leaf disk area consumed at 1 ug/cm2 measured for 4 to 5 hr by leaf disk choice method
Spodoptera littoralis [3] = assay: Antifeedant activity against Spodoptera littoralis fifth-instar larvae reared on compound exposed lettuce disks assessed as leaf disk protection at 10 to 1 ug/cm2 measured for 4 to 5 hr by leaf disk choice method
Spodoptera littoralis [4] = assay: Antifeedant activity against Spodoptera littoralis fifth-instar larvae reared on compound exposed lettuce disks assessed as feeding ratio when 50% of control leaf disk area consumed at 0.1 ug/cm2 measured for 4 to 5 hr by leaf disk choice method

Molecule | FR50 (Spodoptera littoralis [1]) | FR50 (Spodoptera littoralis [2]) | Activity (Spodoptera littoralis [3]) | FR50 (Spodoptera littoralis [4])
CC(=O)OC[C@]12[C@@H](OC(=O)c3ccccc3)C[C@@H]3[C@@H](OC(C)=O)[C@]1(OC3(C)C)[C@H](C)C[C@H](OC(C)=O)[C@@H]2OC(C)=O | 0.19 | 0.54 |  | 
CC(=O)O[C@@H]1[C@@H]2[C@@H](OC(C)=O)[C@]3(OC2(C)C)[C@H](C)C[C@H](OC(C)=O)[C@H](OC(C)=O)[C@@]3(CO)[C@@H]1OC(=O)c1ccccc1 | 0.16 | 0.65 |  | 
CC(=O)OC[C@@]12[C@@H](OC(=O)/C=C/c3ccccc3)CC[C@](C)(O)[C@]13OC(C)(C)[C@H]([C@@H](OC(C)=O)[C@H]2OC(=O)c1ccccc1)[C@H]3OC(C)=O | 0.27 |  |  | 
CC(=O)O[C@H]1[C@@H]2[C@@H](OC(=O)c3cccnc3)[C@@]3(OC2(C)C)[C@@](C)([C@@H](OC(=O)c2ccccc2)CC[C@]3(C)O)[C@@H]1OC(C)=O | 0.04 | 0.15 | 100% | 0.45
CC(=O)OC[C@@]12[C@@H](OC(=O)c3ccccc3)CC[C@](C)(O)[C@]13OC(C)(C)[C@H]([C@@H](OC(C)=O)[C@H]2OC(=O)c1ccccc1)[C@H]3OC(C)=O | 0.24 | 0.58 |  | 
CC(=O)O[C@H]1C[C@@H]2[C@@H](OC(=O)c3cccnc3)[C@@]3(OC2(C)C)[C@@]1(C)[C@@H](OC(=O)c1ccccc1)CC[C@]3(C)O | 0.68 |  |  | 
CC(=O)O[C@H]1[C@H](OC(=O)c2ccccc2)[C@@]2(C)[C@@H](OC(=O)c3ccccc3)C[C@@H]3[C@@H](OC(C)=O)[C@]2(OC3(C)C)[C@@](C)(O)[C@H]1O [2BETA,3BETA,4BETA,TRIHYDROXYCELARBICO] | 0.24 | 0.44 |  | 
CC(=O)OC[C@]12[C@H](OC(=O)c3ccccc3)[C@H](OC(C)=O)[C@@H]3[C@@H](OC(C)=O)[C@]1(OC3(C)C)[C@@](C)(O)C[C@H](OC(C)=O)[C@@H]2OC(=O)c1ccccc1 | 0.35 |  |  | 
CC[C@H](C)C(=O)O[C@H]1[C@H](O)C[C@@H]2[C@@](C)([C@@H]3C[C@H]4CCO[C@H]4O3)[C@H](C)C[C@H](OC(C)=O)[C@@]2(COC(C)=O)[C@@]12CO2 [14,15-DIHYDROAJUGAPITIN] |  |  |  | 0.32
CCC(C)C(=O)O[C@H]1[C@H](O)C[C@@H]2[C@@](C)([C@@H]3C[C@H]4C=CO[C@H]4O3)[C@H](C)C[C@H](OC(C)=O)[C@@]2(COC(C)=O)[C@@]12CO2 (stereo partly drawn) [AJUGAPITIN] |  |  |  | 0.41
CC(=O)O[C@@H]1[C@@H]2[C@@H](OC(C)=O)[C@]3(OC2(C)C)[C@H](C)C[C@H](OC(C)=O)[C@H](OC(C)=O)[C@@]3(CO)[C@H]1OC(=O)c1ccccc1 | 0.07 | 0.53 |  | 
CC(=O)OC[C@]12[C@@H](OC(=O)c3ccccc3)[C@H](OC(C)=O)[C@@H]3[C@@H](OC(C)=O)[C@]1(OC3(C)C)[C@H](C)C[C@H](OC(C)=O)[C@@H]2OC(C)=O | 0.13 | 0.71 |  | 
CC(=O)O[C@@H]1[C@@H](O)[C@@H]2[C@@H](OC(=O)c3cccnc3)[C@@]3(OC2(C)C)[C@@]1(C)[C@@H](OC(=O)c1ccccc1)CC[C@]3(C)O | 0.74 |  |  | 
TRIPHENYLSTANNYL ACETATE | 0.37 |  |  | 
CCC(C)C(=O)O[C@H]1[C@H](OC(C)=O)C[C@@H]2[C@@](C)([C@@H]3C[C@H]4CCO[C@H]4O3)[C@H](C)C[C@H](OC(C)=O)[C@@]2(COC(C)=O)[C@@]12CO2 (stereo partly drawn) [2-acetyl-14,15-dihydroajugapitin] |  |  |  | 0.62
CC(=O)O[C@H]1C[C@@H](C)[C@]23OC(C)(C)[C@H](C[C@H](OC(=O)c4ccccc4)[C@]2(CO)[C@H]1OC(C)=O)[C@H]3OC(C)=O | 0.36 |  |  | 
CC(=O)O[C@H]1[C@@H]2C[C@@]3(OC2(C)C)[C@](C)([C@H]1OC(=O)c1ccccc1)[C@@H](OC(=O)c1ccccc1)[C@H](OC(C)=O)[C@H](OC(C)=O)[C@]3(C)O [2BETA,3BETA,4BETA-TRIHYDROXYCELAPANOL] | 0.38 |  |  | 
CC(=O)O[C@H]1[C@@H]2[C@@H](OC(C)=O)[C@@]3(OC2(C)C)[C@@](C)([C@@H](OC(=O)c2ccccc2)CC[C@]3(C)O)[C@@H]1OC(C)=O | 0.12 | 0.4 |  | 

From ChEMBL document CHEMBL3045149, “Antifeedant activity of dihydro--agarofuran sesquiterpenes from Celastraceae against Spodoptera littoralis” (1992)
